Test results published in patent publication US9775878B2, “Methods for treating bacterial infections using oritavancin and polymyxins” (The Medicines Company, priority 2013, dated 2017).
Read-outs that look alike come from different tables or passages of the source.

How the values were obtained:
Type in all cases: cell-based
[1] = tested on: Acinetobacter baumannii strains; assay: Broth macrodilution MICs under conditions used for synergy time-kill assays; settings: ATCC19609, strain ATCC 19609 (Non-MDR), agent alone, time-kill conditions, read-out: Broth macrodilution MICs
[2] = tested on: Acinetobacter baumannii strains; assay: Broth microdilution MIC of colistin in absence and presence of 0.002% polysorbate 80; settings: for Colistin MIC −P80: absence of polysorbate 80; for Colistin MIC +P80: presence of 0.002% polysorbate-80
Method: Broth microdilution MIC testing (CLSI M07-A9) was performed on the Acinetobacter baumannii ([…]) and 10 AB strains, including 8 MDRAB (resistant to ≧3 of the following: beta-lactams, gentamicin, fluoroquinolones and tetracycline; obtained from Eurofins Medinet Chantilly, Va.). The requirement of 0.002% polysorbate 80 (P-80) for testing oritavancin also necessitated the testing of COL in the presence of P80. Checkerboard assays were used to determine activity of antimicrobial combinations; fractional inhibitory concentration indices (FICI) were used to define synergy, indifference or antagonism. Broth macrodilution MICs were determined following conditions used for synergy time-kill assays. Synergy time-kill studies were performed following CLSI guidelines.
(§1) Minimum inhibitory concentrations (MICs). Broth microdilution MICs were determined according to CLSI (CLSI document M7-A9, 2013) guidelines with the exception that COL MICs were also determined in the presence of 0.002% polysorbate 80 (P80) since P80 was to be present in the combination tests because of its requirement for testing oritavancin. Broth macrodilution MICs were determined following conditions used for synergy time-kill assays.

[3] = tested on: Acinetobacter baumannii strains; assay: Broth macrodilution MICs under conditions used for synergy time-kill assays; settings: Acinetobacter baumannii, agent alone, time-kill conditions, read-out: Broth macrodilution MICs
Method: (§2) Broth microdilution MIC testing (CLSI M07-A9) was performed on the Acinetobacter baumannii (AB) reference strain ATCC 19606 (obtained from ATCC) and 10 AB strains, including 8 MDRAB (resistant to ≧3 of the following: beta-lactams, gentamicin, fluoroquinolones and tetracycline; obtained from Eurofins Medinet Chantilly, Va.). The requirement of 0.002% polysorbate 80 (P-80) for testing oritavancin also necessitated the testing of COL in the presence of P80. Checkerboard assays were used to determine activity of antimicrobial combinations; fractional inhibitory concentration indices (FICI) were used to define synergy, indifference or antagonism. Broth macrodilution MICs were determined following conditions used for synergy time-kill assays. Synergy time-kill studies were performed following CLSI guidelines.
as §1

[4] = tested on: Acinetobacter baumannii strains; assay: Synergy time-kill assay; settings: concentration of the agent within the ORI+COL combination, ≧2 log CFU/mL decrease vs most active constituent at 24 h, 0.002% P80
Method: as §2
Time-kill assays followed CLSI guidelines (NCCLS, CLSI document M26-A2, 1999) with the exception that 96 deep-well plates were used. Exponential-phase bacteria were diluted to approximately 5×10^5 colony-forming units (CFU)/mL and exposed to ORI or COL alone, or in combination in CAMHB containing 0.002% P80. Bacteria were enumerated by serial dilution plating. To prevent drug carryover during serial dilution plating, aliquots of the drug-challenged culture were added to an equal volume of 25 mg/mL activated charcoal suspension. […] All experiments were repeated at least two times and a representative experiment is presented in the plots; data points are an average of duplicate CFU/mL determinations within an experiment.

CCC(C)CCCC(=O)N[C@H](CCN)C(=O)N[C@H](C(=O)N[C@@H](CCN)C(=O)N[C@H]1CCNC(=O)[C@H]([C@@H](C)O)NC(=O)[C@H](CCN)NC(=O)[C@H](CCN)NC(=O)[C@H](CC(C)C)NC(=O)[C@@H](CC(C)C)NC(=O)[C@H](CCN)NC1=O)[C@@H](C)O (stereo in doubt) [COL, Colistin]
MIC [1]: 0.25 µg/mL | Fold change in MIC (−P80/+P80) ([2]; strain 2691748 (Non-MDR)): 8 | Colistin MIC −P80 ([2]; strain 2691748 (Non-MDR)): 4 µg/mL | Colistin MIC +P80 ([2]; strain 2691748 (Non-MDR)): 0.5 µg/mL | Fold change in MIC (−P80/+P80) ([2]; strain 2691818 (Non-MDR)): 2 | Colistin MIC −P80 ([2]; strain 2691818 (Non-MDR)): 2 µg/mL | Colistin MIC +P80 ([2]; strain 2691818 (Non-MDR)): 1 µg/mL | Fold change in MIC (−P80/+P80) ([2]; strain 2691999 (MDR)): 4 | Colistin MIC −P80 ([2]; strain 2691999 (MDR)): 1 µg/mL | Colistin MIC +P80 ([2]; strain 2691999 (MDR)): 0.25 µg/mL | Fold change in MIC (−P80/+P80) ([2]; strain 2692406 (MDR)): 16 | Colistin MIC −P80 ([2]; strain 2692406 (MDR)): 2 µg/mL | Colistin MIC +P80 ([2]; strain 2692406 (MDR)): 0.125 µg/mL | Fold change in MIC (−P80/+P80) ([2]; strain 2692650 (MDR)): 4 | Colistin MIC −P80 ([2]; strain 2692650 (MDR)): 0.5 µg/mL | Colistin MIC +P80 ([2]; strain 2692650 (MDR)): 0.125 µg/mL | Fold change in MIC (−P80/+P80) ([2]; strain 2692721 (MDR)): 4 | Colistin MIC −P80 ([2]; strain 2692721 (MDR)): 1 µg/mL | Colistin MIC +P80 ([2]; strain 2692721 (MDR)): 0.25 µg/mL | Fold change in MIC (−P80/+P80) ([2]; strain 2693922 (MDR)): 4 | Colistin MIC −P80 ([2]; strain 2693922 (MDR)): 0.5 µg/mL | Colistin MIC +P80 ([2]; strain 2693922 (MDR)): 0.125 µg/mL | Fold change in MIC (−P80/+P80) ([2]; strain 2694038 (MDR)): 4 | Colistin MIC −P80 ([2]; strain 2694038 (MDR)): 1 µg/mL | Colistin MIC +P80 ([2]; strain 2694038 (MDR)): 0.25 µg/mL | Fold change in MIC (−P80/+P80) ([2]; strain 2694224 (MDR)): 4 | Colistin MIC −P80 ([2]; strain 2694224 (MDR)): 1 µg/mL | Colistin MIC +P80 ([2]; strain 2694224 (MDR)): 0.25 µg/mL | Fold change in MIC (−P80/+P80) ([2]; strain 2694227 (MDR)): 8 | Colistin MIC −P80 ([2]; strain 2694227 (MDR)): 1 µg/mL | Colistin MIC +P80 ([2]; strain 2694227 (MDR)): 0.125 µg/mL | Fold change in MIC (−P80/+P80) ([2]; strain ATCC 19609 (Non-MDR)): 4 | Colistin MIC −P80 ([2]; strain ATCC 19609 (Non-MDR)): 1 µg/mL | Colistin MIC +P80 ([2]; strain ATCC 19609 (Non-MDR)): 0.25 µg/mL | MIC ([3]; strain 2691748 (Non-MDR)): > 16 µg/mL | MIC ([3]; strain 2691818 (Non-MDR)): 0.25 µg/mL | MIC ([3]; strain 2691999 (MDR)): 1 µg/mL | MIC ([3]; strain 2692406 (MDR)): 0.25 µg/mL | MIC ([3]; strain 2692650 (MDR)): 0.25 µg/mL | MIC ([3]; strain 2692721 (MDR)): 0.5 µg/mL | MIC ([3]; strain 2693922 (MDR)): 0.5 µg/mL | MIC ([3]; strain 2694038 (MDR)): 0.12 µg/mL | MIC ([3]; strain 2694224 (MDR)): 0.5 µg/mL | MIC ([3]; strain 2694227 (MDR)): 0.5 µg/mL | Concentrations that yielded synergy in time-kill ([4]; strain 2691748 (Non-MDR)): 1 µg/mL | Concentrations that yielded synergy in time-kill ([4]; strain 2691818 (Non-MDR)): 0.12 µg/mL | Concentrations that yielded synergy in time-kill ([4]; strain 2691999 (MDR)): 0.12 µg/mL | Concentrations that yielded synergy in time-kill ([4]; strain 2692406 (MDR)): 0.12 µg/mL | Concentrations that yielded synergy in time-kill ([4]; strain 2692650 (MDR)): 0.12 µg/mL | Concentrations that yielded synergy in time-kill ([4]; strain 2692721 (MDR)): 0.12 µg/mL | Concentrations that yielded synergy in time-kill ([4]; strain 2693922 (MDR)): 0.12 µg/mL | Concentrations that yielded synergy in time-kill ([4]; strain 2694038 (MDR)): 0.06 µg/mL | Concentrations that yielded synergy in time-kill ([4]; strain 2694224 (MDR)): 0.12 µg/mL | Concentrations that yielded synergy in time-kill ([4]; strain 2694227 (MDR)): 0.12 µg/mL | Concentrations that yielded synergy in time-kill ([4]; strain ATCC 19609 (Non-MDR)): 0.06 µg/mL
